Assay results reported in US8785488B2 (Exelixis Patent Company LLC, priority 2009, dated 2014).

Columns and labels:
h-TGR5 = target: T1, h-TGR5 (Homo sapiens, UniProt Q8TDU6); assay: TGR5 cAMP Assay using Cisbio cAMP Dynamic2 htrf kit (hTGR5CRE-luc HEK 293 cells); type: cell-based; conditions: h-TGR5 cAMP EC50, Table 1; read-out: cAMP (EC50)
T1 construct: expressed in transfected cells
T1 sequence (Q8TDU6 1-330): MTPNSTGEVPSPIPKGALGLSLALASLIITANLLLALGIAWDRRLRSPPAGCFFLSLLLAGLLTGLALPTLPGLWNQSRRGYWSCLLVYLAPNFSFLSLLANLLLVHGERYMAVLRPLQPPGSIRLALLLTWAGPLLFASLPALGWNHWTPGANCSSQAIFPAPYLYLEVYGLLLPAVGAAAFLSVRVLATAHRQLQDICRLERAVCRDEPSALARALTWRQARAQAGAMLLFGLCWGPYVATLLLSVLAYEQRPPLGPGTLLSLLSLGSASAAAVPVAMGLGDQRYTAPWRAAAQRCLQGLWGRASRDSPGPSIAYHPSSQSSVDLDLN
Method: Compounds were diluted in DPBS with 5% DMSO (8-point serial dilution by half logs) in a 96-well plate and 1 μL was transferred to a 384-well assay plate in quadruplicate. The d2-cAMP and anti-cAMP Ab-cryptate stock solution were prepared as per the instructions in the Cisbio™ (Bedford, Mass.) kit. […] Cells were adjusted to 0.44×10^6 cells/ml followed by addition of IBMX to a final concentration of 0.5 mM. The cells were then mixed with d2-cAMP solution (7.1 mL cells+100 ul d2-cAMP) and 4000 cells (9 μL) were transferred to each well of the 384-well assay plate. Cells without d2-cAMP were added to eight wells as a negative control. The plate was covered and incubated at room temp for 30 min. Then 10 μL of Ab-cryptate solution was added to each well of the assay plate and incubated for 1 hr. The plate was read on an EnVision™ plate reader (Perkin-Elmer, Waltham, Mass.) and the DeltaF value was calculated as per the instructions in the Cisbio™ kit.
In the following tables, EC50 values determined according to the TGR5 cAMP Assay described herein (cAMP); EC50 values determined according to the TGR5/CRE-Luciferiase Assay described herein (CRE-Luc). […] The following compounds in Tables 1 and 2 were made by using procedures described in the above Schemes and Examples, and, where applicable, by making any necessary substitutions of known materials that one skilled in the art would ordinarily understand how to do.

human TGR5 (h-TGR5) = target: T2, human TGR5 (h-TGR5) (Homo sapiens, UniProt Q8TDU6); assay: TGR5/CRE-Luciferiase Assay (HEK 293 hTGR5/CRE-Luc cells); type: cell-based; conditions: h-TGR5 CRE-Luc EC50, Table 1; read-out: CRE-Luc (EC50)
T2 construct: expressed in transfected cells
T2 sequence (Q8TDU6 1-330): T1 sequence (Q8TDU6 1-330)
Method in brief: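 HEK293 cells stably carrying hTGR5 and a CRE-luciferase reporter were exposed to serially diluted compounds (diluted in DMEM with 5% DMSO) for 6 h. Cells were then lysed in luciferase buffer, luminescence was read, and EC50 values were derived from dose-response curves.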

Molecule	EC50 (h-TGR5) [nM]	EC50 (human TGR5 (h-TGR5)) [nM]
CC(C)(c1ccc(Cl)c(OCCCN2CCOCC2)c1)c1cnc(SCc2c(F)cccc2Cl)n1-c1ccc(F)cc1	100 to 1000	100 to 1000
CC(C)(c1ccc(F)c(F)c1)c1cnc(SCc2c(F)cc(C(=O)O)cc2F)n1-c1ccc(F)cc1	< 100	100 to 1000
CC(C)(c1ccc(Cl)c(Cl)c1)c1cnc(COc2c(F)cc(C(=O)O)cc2Cl)n1-c1ccc(F)cc1	100 to 1000	100 to 1000
COc1cc(C(C)(C)c2cnc(SCc3c(F)cc(NC(=O)[C@@H](N)CC(=O)O)cc3Cl)n2-c2ccc(F)cc2)ccc1Cl	< 100	< 100
4-({[5-{1-[4-chloro-3-(methyloxy)phenyl]-1- methylethyl}-1-(4-fIuorophenyl)-1H-imidazol- 2-yl]thio}methyl)-3,5-difluoro-N-[(pyrrolidin- 1-ylamino)carbonyl]benzenesulfonamide	< 100	< 100
COc1cc(C(C)(C)c2cnc(SCc3cc(OCCNC(=N)N)c(Cl)cc3F)n2-c2ccc(F)cc2)ccc1Cl [1-(2-{[2-chloro-5-({[5-{1-[4-chloro-3-(methyloxy)phenyl]-1-methylethyl}-1-(4-fluorophenyl)-1H-imidazol-2-yl]thio}methyl)-4-fluorophenyl]oxy}ethyl)guanidine]	< 100	100 to 1000
COc1cc(C(C)(C)c2cnc(SCc3c(F)cc(OCCNC(=N)N)cc3F)n2-c2ccc(F)cc2)ccc1F [1-(2-{[3,5-difluoro-4-({[5-{1-[4-fluoro-3-(methyloxy)phenyl]-1-methylethyl}-1-(4-fluorophenyl)-1H-imidazol-2-yl]thio}methyl)phenyl]oxy}ethyl)guanidine]	< 100	< 100
COc1cc(C(C)(C)c2cnc(SCc3c(F)cc(OCCNC(=N)N)cc3Cl)n2-c2ccc(F)cc2)ccc1Cl [1-(2-{[3-chloro-4-({[5-{1-[4-chloro-3-(methyloxy)phenyl]-1-methylethyl}-1-(4-fluorophenyl)-1H-imidazol-2-yl]thio}methyl)-5-fluorophenyl]oxy}ethyl)guanidine]	< 100	< 100
COc1cc(C(C)(C)c2cnc(SCc3c(F)cc(OCCNC(=N)N)cc3Cl)n2-c2ccc(F)cc2)ccc1F [1-(2-{[3-chloro-5-fluoro-4-({[5-{1-[4-fluoro-3-(methyloxy)phenyl]-1-methylethyl}-1-(4-fluorophenyl)-1H-imidazol-2-yl]thio}methyl)phenyl]oxy}ethyl)guanidine]	< 100	< 100
COc1cc(C(C)(C)c2cnc(SCc3c(F)cc(OCCNC(=N)N)cc3F)n2-c2ccc(F)cc2)ccc1Cl [1-(2-{[4-({[5-{1-[4-chloro-3-(methyloxy)phenyl]-1-methylethyl}-1-(4-fluorophenyl)-1H-imidazol-2-yl]thio}methyl)-3,5-difluorophenyl]oxy}ethyl)guanidine]	< 100	< 100
COc1cc(C(C)(C)c2cnc(SCc3c(F)ccc(OCCCNC(=N)N)c3Cl)n2-c2ccc(F)cc2)ccc1F [1-(3-{[2-chloro-4-fluoro-3-({[5-{1-[4-fluoro-3-(methyloxy)phenyl]-1-methylethyl}-1-(4-fluorophenyl)-1H-imidazol-2-yl]thio}methyl)phenyl]oxy}propyl)guanidine]	< 100	< 100
COc1cc(C(C)(C)c2cnc(SCc3c(F)cc(OCCCNC(=N)N)cc3F)n2-c2ccc(F)cc2)ccc1F [1-(3-{[3,5-difluoro-4-({[5-{1-[4-fluoro-3-(methyloxy)phenyl]-1-methylethyl}-1-(4-fluorophenyl)-1H-imidazol-2-yl]thio}methyl)phenyl]oxy}propyl)guanidine]	< 100	< 100
COc1cc(C(C)(C)c2cnc(SCc3c(F)cc(OCCCNC(=N)N)cc3Cl)n2-c2ccc(F)cc2)ccc1Cl [1-(3-{[3-chloro-4-({[5-{1-[4-chloro-3-(methyloxy)phenyl]-1-methylethyl}-1-(4-fluorophenyl)-1H-imidazol-2-yl]thio}methyl)-5-fluorophenyl]oxy}propyl)guanidine]	< 100	< 100
COc1cc(C(C)(C)c2cnc(SCc3c(F)cc(OCCCNC(=N)N)cc3Cl)n2-c2ccc(F)cc2)ccc1F [1-(3-{[3-chloro-5-fluoro-4-({[5-{1-[4-fluoro-3-(methyloxy)phenyl]-1-methylethyl}-1-(4-fluorophenyl)-1H-imidazol-2-yl]thio}methyl)phenyl]oxy}propyl)guanidine]	< 100	< 100
CC(C)(c1ccc(Cl)cc1)c1cnc(SCc2ccc(S(=O)(=O)NC(=O)NN3CCCC3)cc2Cl)n1-c1ccc(F)cc1F [3-chloro-4-[({5-[1-(4-chlorophenyl)-1-methylethyl]-1-(2,4-difluorophenyl)-1H-imidazol-2-yl}thio)methyl]-N-[(pyrrolidin-1-ylamino)carbonyl]benzenesulfonamide]	1000 to 10000	
CC(C)(c1ccc(S(N)(=O)=O)cc1)c1cnc(SCc2ccc(S(=O)(=O)NC(=O)NN3CCOCC3)cc2Cl)n1-c1ccc(F)c(F)c1 [4-({[5-{1-[4-(aminosulfonyl)phenyl]-1-methylethyl}-1-(3,4-difluorophenyl)-1H-imidazol-2-yl]thio}methyl)-3-chloro-N-[(morpholin-4-ylamino)carbonyl]benzenesulfonamide]	1000 to 10000	
CC(C)(c1ccc(S(N)(=O)=O)cc1)c1cnc(SCc2ccc(S(=O)(=O)NC(=O)NN3CCOCC3)cc2Cl)n1-c1ccc(F)c(Cl)c1 [4-({[5-{1-[4-(aminosulfonyl)phenyl]-1-methylethyl}-1-(3-chloro-4-fluorophenyl)-1H-imidazol-2-yl]thio}methyl)-3-chloro-N-[(morpholin-4-ylamino)carbonyl]benzenesulfonamide]	1000 to 10000	
CNS(=O)(=O)c1ccc(C(C)(C)c2cnc(SCc3ccc(S(=O)(=O)NC(=O)NN4CCCC4)cc3Cl)n2-c2ccc(F)cc2)cc1OC [4-{1-[2-({[2-chloro-4-({[(pyrrolidin-1-ylamino)carbonyl]amino}sulfonyl)phenyl]methyl}thio)-1-(4-fluorophenyl)-1H-imidazol-5-yl]-1-methylethyl}-N-methyl-2-(methyloxy)benzenesulfonamide]	100 to 1000	
CC(C)(c1ccc(S(C)(=O)=O)cc1)c1cnc(SCc2ccc(Cl)c(-c3nnn[nH]3)c2)n1-c1ccc(F)c(F)c1 [5-[2-chloro-5-({[1-(3,4-difluorophenyl)-5-{1-methyl-1-[4-(methylsulfonyl)phenyl]ethyl}-1H-imidazol-2-yl]thio}methyl)phenyl]-1H-tetrazole]	1000 to 10000	
CC(C)(c1ccc(S(C)(=O)=O)cc1)c1cnc(SCc2ccc(Cl)c(-c3nnn[nH]3)c2)n1-c1ccc(F)cc1 [5-[2-chloro-5-({[1-(4-fluorophenyl)-5-{1-methyl-1-[4-(methylsulfonyl)phenyl]ethyl}-1H-imidazol-2-yl]thio}methyl)phenyl]-1H-tetrazole]	1000 to 10000	
COc1cc(C(C)(C)c2cnc(SCc3ccc(S(=O)(=O)NC(=O)NCC(=O)O)cc3Cl)n2-c2ccc(F)cc2)ccc1Cl [N-[({[3-chloro-4-({[5-{1-[4-chloro-3-(methyloxy)phenyl]-1-methylethyl}-1-(4-fluorophenyl)-1H-imidazol-2-yl]thio}methyl)phenyl]sulfonyl}amino)carbonyl]glycine]	100 to 1000	
